pEC50: −log10 of the molar value.
Biological target: T1, PRMT5 (Homo sapiens, UniProt O14744)
T1 construct: endogenous in cells; host or cells: MCF-7
Test: PRMT5 Cell Target Engagement (TE) Assay
Type: cell-based
Conditions: MCF-7 cells, 3 days treatment, nuclear SDMA by high content imaging
Source text: The PRMT5 TE assay is a biomarker assay for identifying compounds that inhibit symmetric dimethylation of arginine (SDMA) of PRMT5 substrates. The following substrates have been reported for PRMT5: Histone H2A and H4 R3, Histone H3 R2, Histone H3 R8, spliceosome Sm proteins, ribosomal protein RPS10, p53, FEN1, nucleoplasmin, nucleolin, EGFR and EBNA. The assay will focus on detecting symmetrically dimethylated nuclear proteins using high content imaging technology. Detection of the expression of symmetrically dimethylated nuclear proteins is through a mixture of primary rabbit monoclonal antibodies to SDMA (CST 13222), which in turn recognized by an Alexafluor 488 dye-conjugated anti-rabbit IgG secondary antibody. The IN Cell Analyzer 2200 or Opera-Phenix measures nuclear Alexafluor 488 fluorescent dye intensity that is directly related to the level of expression of symmetrically dimethylated nuclear proteins at the single cell level. Nuclear AF488 dye intensities are compared to the mean value for DMSO treated cells (MIN) to report percent of inhibition for each compound-treated well.
In this assay, the cell potency (EC50) of each compound was determined from a ten point (1:3 serial dilution; top compound concentration of 10000 nM) titration curve using the following outlined procedure. Each well of a BD falcon collagen coated black/clear bottom 384-well plate was seeded with 4000 MCF-7 cells in 30 μl media and allowed to attach for 5 hours. Media is ATCC-formulated Eagle's Minimum Essential Medium, Catalog No. 30-2003. The following components were added to the base medium: 0.01 mg/mL human recombinant insulin; fetal bovine serum to a final concentration of 10%. Additional 30 μl of media containing 2× compounds were added to each well. Cells were treated for 3 days in 37° C. CO2 incubator. On day 3, cells were fixed with Cytofix, permeabilized with 0.4% Triton-X-100/Cytofix, and washed with D-PBS without Ca/Mg. Cells were blocked with Licor Odessey blocking reagent for 1 hour at room temperature, followed by incubation with anti-SDMA (1:1000) antibody at 4° C. overnight. 1° antibody was removed, followed by three washings with DPBS without Ca/Mg and 0.05% Tween20. Hoechst (5 μg/mL), Cell Mask deep stain (1:2000) and Alexa488-conjugated goat anti-rabbit IgG (2 μg/mL) was added for 1 hour at room temperature. A final washing step (three washes) was performed before sealing plate for imaging on In Cell Analyzer 2200 or Opera-Phenix. Images from analyzer were uploaded to Columbus for image analysis. IC50 values were determined by 4 parameters robust fit of percent fluorescence units vs. (Log10) compound concentrations.

T1 sequence (O14744 whole entry): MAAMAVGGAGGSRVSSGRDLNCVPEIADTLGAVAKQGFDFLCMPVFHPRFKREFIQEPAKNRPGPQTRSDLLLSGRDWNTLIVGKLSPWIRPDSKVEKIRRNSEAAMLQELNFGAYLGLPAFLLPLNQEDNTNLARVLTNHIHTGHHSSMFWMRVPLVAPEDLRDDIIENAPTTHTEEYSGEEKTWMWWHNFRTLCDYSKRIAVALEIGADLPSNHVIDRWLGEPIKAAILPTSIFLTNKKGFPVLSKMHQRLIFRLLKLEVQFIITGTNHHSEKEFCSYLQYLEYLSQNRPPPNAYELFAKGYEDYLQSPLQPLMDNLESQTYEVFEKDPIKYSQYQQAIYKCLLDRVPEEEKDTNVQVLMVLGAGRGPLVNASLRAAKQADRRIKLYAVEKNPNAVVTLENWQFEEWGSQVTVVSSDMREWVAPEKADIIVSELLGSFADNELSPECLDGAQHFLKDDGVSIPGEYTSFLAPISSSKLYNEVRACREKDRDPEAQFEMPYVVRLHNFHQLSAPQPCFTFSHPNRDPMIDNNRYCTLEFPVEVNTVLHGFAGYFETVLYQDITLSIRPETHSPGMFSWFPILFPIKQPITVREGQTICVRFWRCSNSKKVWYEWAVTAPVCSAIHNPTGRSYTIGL
T1 sequence (Q9BQA1 whole entry partner): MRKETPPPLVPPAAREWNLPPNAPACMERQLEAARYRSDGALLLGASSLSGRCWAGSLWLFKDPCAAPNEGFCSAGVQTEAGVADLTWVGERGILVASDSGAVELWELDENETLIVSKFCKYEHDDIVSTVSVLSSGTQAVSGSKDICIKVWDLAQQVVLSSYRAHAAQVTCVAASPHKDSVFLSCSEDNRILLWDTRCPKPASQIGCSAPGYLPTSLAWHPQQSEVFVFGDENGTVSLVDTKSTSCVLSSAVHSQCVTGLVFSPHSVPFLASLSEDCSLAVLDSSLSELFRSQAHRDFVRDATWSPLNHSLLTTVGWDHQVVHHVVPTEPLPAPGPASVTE

pEC50	SMILES
8.40	C[C@]1(O)[C@@H](O)[C@H](n2ccc3c(N)ncnc32)O[C@@H]1[C@](C)(O)c1cc(F)cc(C(F)F)c1 [Example 66, 7-{6-deoxy-5-C-[3-(difluoromethyl)-5-fluorophenyl]-3-C-methyl-alpha-L-talofuranosyl}-7H-pyrrolo[2,3-d]pyrimidin-4-amine]
8.85	Cc1ncnc2c1ccn2[C@@H]1O[C@H]([C@@H](C)c2cc(C(F)F)c(F)c3c2CNCC3)[C@@](C)(O)[C@H]1O (single isomer, unassigned) [Example 93]
< 5.00	C[C@@]1(O)[C@@H]([C@@H](O)c2ccc(F)c(F)c2F)O[C@@H](n2ccc3c(N)ncnc32)[C@@H]1O [Example 51, 7-[(5S)-3-C-methyl-5-C-(2,3,4-trifluorophenyl)-beta-D-ribofuranosyl]-7H-pyrrolo[2,3-d]pyrimidin-4-amine]
5.88	C[C@]1(O)[C@@H](O)[C@H](n2ccc3c(N)ncnc32)O[C@@H]1[C@](C)(O)c1cncc(C(F)F)c1 [Example 77, 7-{6-deoxy-5-C-[5-(difluoromethyl)pyridin-3-yl]-3-C-methyl-alpha-L-talofuranosyl}-7H-pyrrolo[2,3-d]pyrimidin-4-amine]
6.74	C[C@]1(O)[C@@H](O)[C@H](n2ccc3c(N)ncnc32)O[C@@H]1[C@](C)(O)c1cccc2c1CNCC2 [Example 63, 7-[6-deoxy-3-C-methyl-5-C-(1,2,3,4-tetrahydroisoquinolin-8-yl)-beta-D-ribo-hexofuranosyl]-7H-pyrrolo[2,3-d]pyrimidin-4-amine]
7.12	Cc1ncnc2c1ccn2[C@@H]1O[C@H]([C@H](O)c2cc(C(F)F)c(F)c3c2CNCC3)[C@@](C)(O)[C@H]1O (single isomer, unassigned) [Example 89]
6.41	C[C@@]1(O)[C@@H]([C@H](O)c2cccc(C(F)(F)F)c2)O[C@@H](n2ccc3c(N)ncnc32)[C@@H]1O [Example 54, 7-{(5R)-3-C-methyl-5-C-[3-(trifluoromethyl)phenyl]-beta-D-ribofuranosyl}-7H-pyrrolo[2,3-d]pyrimidin-4-amine]
< 5.00	C[C@@]1(O)[C@@H]([C@@H](O)c2ccc(F)cc2Cl)O[C@@H](n2ccc3c(N)ncnc32)[C@@H]1O [Example 49, 7-[(5S)-5-C-(2-chloro-4-fluorophenyl)-3-C-methyl-beta-D-ribofuranosyl]-7H-pyrrolo[2,3-d]pyrimidin-4-amine]
7.23	C[C@@]1(O)[C@@H]([C@H](O)c2cc(F)cc(F)c2)O[C@@H](n2ccc3c(N)ncnc32)[C@@H]1O [Example 22, 7-[(5R)-5-C-(3,5-difluorophenyl)-3-C-methyl-beta-D-ribofuranosyl]-7H-pyrrolo[2,3-d]pyrimidin-4-amine]
5.56	COc1ccc([C@@H](O)[C@H]2O[C@@H](n3ccc4c(N)ncnc43)[C@H](O)[C@]2(C)O)cc1 [Example 32, 7-[(5R)-5-C-(4-methoxyphenyl)-3-C-methyl-beta-D-ribofuranosyl]-7H-pyrrolo[2,3-d]pyrimidin-4-amine]
6.84	C[C@]1(O)[C@@H](O)[C@H](n2ccc3c(N)ncnc32)O[C@@H]1[C@](C)(O)c1ccc(F)c(F)c1 [Example 3, (2R,3S,4R,5R)-5-(4-amino-7H-pyrrolo[2,3-d]pyrimidin-7-yl)-2-((R)-1-(3,4-difluorophenyl)-1-hydroxyethyl)-3-methyltetrahydrofuran-3,4-diol]
9.27	Cc1ncnc2c1ccn2[C@@H]1O[C@H]([C@](C)(O)c2cc(C(F)F)c(F)c3c2CNCC3)[C@@](C)(O)[C@H]1O [Example 91, (2R,3S,4R,5R)-2-((R)-1-(6-(difluoromethyl)-5-fluoro-1,2,3,4-tetrahydroisoquinolin-8-yl)-1-hydroxyethyl)-3-methyl-5-(4-methyl-7H-pyrrolo[2,3-d]pyrimidin-7-yl)tetrahydrofuran-3,4-diol]
< 5.00	Cc1ccccc1[C@H](O)[C@H]1O[C@@H](n2ccc3c(N)ncnc32)[C@H](O)[C@]1(C)O [Example 41, 7-[(5S)-3-C-methyl-5-C-(2-methylphenyl)-beta-D-ribofuranosyl]-7H-pyrrolo[2,3-d]pyrimidin-4-amine]
6.73	C[C@@]1(O)[C@@H]([C@H](O)c2ccc(F)c(F)c2)O[C@@H](n2ccc3c(N)ncnc32)[C@@H]1O [Example 1, (2R,3S,4R,5R)-5-(4-amino-7H-pyrrolo[2,3-d]pyrimidin-7-yl)-2-((R)-(3,4-difluorophenyl)(hydroxy)methyl)-3-methyltetrahydrofuran-3,4-diol]
8.25	C[C@]1(O)[C@@H](O)[C@H](n2ccc3c(N)ncnc32)O[C@@H]1[C@](C)(O)c1cc(C(F)F)c(F)c2c1CNCC2 [Example 10, (2R,3S,4R,5R)-5-(4-amino-7H-pyrrolo[2,3-d]pyrimidin-7-yl)-2-((R)-1-(6-(difluoromethyl)-5-fluoro-1,2,3,4-tetrahydroisoquinolin-8-yl)-1-hydroxyethyl)-3-methyltetrahydrofuran-3,4-diol]
< 5.00	C[C@@]1(O)[C@@H]([C@@H](O)c2ccc(F)c(C(F)F)c2F)O[C@@H](n2ccc3c(N)ncnc32)[C@@H]1O [Example 68, 7-{(5S)-5-C-[3-(difluoromethyl)-2,4-difluorophenyl]-3-C-methyl-beta-D-ribofuranosyl}-7H-pyrrolo[2,3-d]pyrimidin-4-amine]
< 5.00	C[C@@]1(O)[C@@H]([C@@H](O)c2cc(F)c(F)c(F)c2)O[C@@H](n2ccc3c(N)ncnc32)[C@@H]1O [Example 35, 7-[(5S)-3-C-methyl-5-C-(3,4,5-trifluorophenyl)-beta-D-ribofuranosyl]-7H-pyrrolo[2,3-d]pyrimidin-4-amine]
5.85	C[C@@]1(O)[C@@H]([C@H](O)c2ccnc(C(F)F)c2)O[C@@H](n2ccc3c(N)ncnc32)[C@@H]1O [Example 78, 7-{(5R)-5-C-[2-(difluoromethyl)pyridin-4-yl]-3-C-methyl-beta-D-ribofuranosyl}-7H-pyrrolo[2,3-d]pyrimidin-4-amine]
8.13	Cc1ncnc2c1ccn2[C@@H]1O[C@H]([C@@H](O)c2cc(C(F)F)c(F)c3c2CNCC3)[C@@](C)(O)[C@H]1O (single isomer, unassigned) [Example 90]
5.97	C[C@@]1(O)[C@@H]([C@H](O)c2cccc(F)c2F)O[C@@H](n2ccc3c(N)ncnc32)[C@@H]1O [Example 44, 7-[(5R)-5-C-(2,3-difluorophenyl)-3-C-methyl-beta-D-ribofuranosyl]-7H-pyrrolo[2,3-d]pyrimidin-4-amine]
< 5.00	COc1cccc([C@H](O)[C@H]2O[C@@H](n3ccc4c(N)ncnc43)[C@H](O)[C@]2(C)O)c1 [Example 37, 7-[(5S)-5-C-(3-methoxyphenyl)-3-C-methyl-beta-D-ribofuranosyl]-7H-pyrrolo[2,3-d]pyrimidin-4-amine]
6.92	C[C@H](c1cc(F)cc(C(F)F)c1)[C@H]1O[C@@H](n2ccc3c(N)ncnc32)[C@H](O)[C@]1(C)O (single isomer, unassigned) [Example 83]
6.39	C[C@@]1(O)[C@@H]([C@H](O)c2cc(Cl)cc(C(F)(F)F)c2)O[C@@H](n2ccc3c(N)ncnc32)[C@@H]1O [Example 60, 7-{(5R)-5-C-[3-chloro-5-(trifluoromethyl)phenyl]-3-C-methyl-beta-D-ribofuranosyl}-7H-pyrrolo[2,3-d]pyrimidin-4-amine]
6.78	Cc1cccc([C@@H](O)[C@H]2O[C@@H](n3ccc4c(N)ncnc43)[C@H](O)[C@]2(C)O)c1 [Example 38, 7-[(5R)-3-C-methyl-5-C-(3-methylphenyl)-beta-D-ribofuranosyl]-7H-pyrrolo[2,3-d]pyrimidin-4-amine]
< 5.00	C[C@@]1(O)[C@@H]([C@@H](O)c2cccc(C(F)F)c2)O[C@@H](n2ccc3c(N)ncnc32)[C@@H]1O [Example 57, 7-{(5S)-5-C-[3-(difluoromethyl)phenyl]-3-C-methyl-beta-D-ribofuranosyl}-7H-pyrrolo[2,3-d]pyrimidin-4-amine]
< 5.00	C[C@@]1(O)[C@@H]([C@@H](O)c2cncc(C(F)F)c2)O[C@@H](n2ccc3c(N)ncnc32)[C@@H]1O [Example 75, 7-{(5S)-5-C-[5-(difluoromethyl)pyridin-3-yl]-3-C-methyl-beta-D-ribofuranosyl}-7H-pyrrolo[2,3-d]pyrimidin-4-amine]
6.56	Cc1ncnc2c1ccn2[C@@H]1O[C@H]([C@H](C)c2cc(C(F)F)c(F)c3c2CNCC3)[C@@](C)(O)[C@H]1O (single isomer, unassigned) [Example 92]
